# Measured values from patent US20160046618A1, “Cyclopropyl Fused Thiazin-2-Amine Compounds as Beta-Secretase Inhibitors and Methods of Use” (AMGEN INC., priority 2014, published 2016).
# Assays:
# [1] = tested on: Aβ40 in conditioned medium of cells stably expressing Amyloid Precursor Protein (APP); experiment: In vitro BACE-1 cell-based assay (Aβ40 sandwich ELISA); details: read-out: IC50 IP (μM) BACE1 cell
# How it was run: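 APP-expressing cells treated 24 h at 37 °C with compound in 10-point dose response (top 100 μM or 10 μM, 0.1% DMSO final). Secreted Aβ40 in conditioned medium quantified by sandwich ELISA (pAb40 capture, biotinylated 6E10 detection, time-resolved europium fluorescence); IC50 from percent inhibition versus concentration.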
# human recombinant BACE1 = human recombinant BACE1 (Homo sapiens (Human), UniProt P56817); experiment: In vitro enzymatic BACE1 FRET assay; assay type: biochemical; details: read-out: IC50 IP (μM) BACE1 enzyme
# Sequence of human recombinant BACE1 (P56817 46-501): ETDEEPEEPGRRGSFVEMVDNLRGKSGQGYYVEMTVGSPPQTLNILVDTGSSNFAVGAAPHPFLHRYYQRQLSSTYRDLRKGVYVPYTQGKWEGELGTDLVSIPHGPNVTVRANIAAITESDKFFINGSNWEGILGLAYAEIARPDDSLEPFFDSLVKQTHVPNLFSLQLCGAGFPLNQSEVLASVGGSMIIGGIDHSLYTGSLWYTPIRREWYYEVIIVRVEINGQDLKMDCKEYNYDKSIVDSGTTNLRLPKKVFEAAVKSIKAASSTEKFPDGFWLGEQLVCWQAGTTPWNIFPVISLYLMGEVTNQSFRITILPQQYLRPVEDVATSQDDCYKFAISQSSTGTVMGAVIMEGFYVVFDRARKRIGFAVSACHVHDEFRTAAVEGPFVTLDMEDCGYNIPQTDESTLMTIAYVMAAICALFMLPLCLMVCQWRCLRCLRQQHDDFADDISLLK
# How it was run: (§1)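 Ni-NTA-purified recombinant protease incubated with compound; reaction started with 50 nM FRET peptide substrate (fluorophore/quencher flanking the BACE cleavage site) and run 1 h. Stopped with Tris buffer raising pH to neutral; fluorescence read at ex 488/em 590 nm.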
# Recombinant Cat D = Recombinant Cat D (Homo sapiens (Human), UniProt P07339); experiment: In vitro enzymatic Cathepsin D (Cat D) FRET assay; assay type: biochemical; details: read-out: IC50 IP (μM) CatD
# Sequence of Recombinant Cat D (P07339 65-412): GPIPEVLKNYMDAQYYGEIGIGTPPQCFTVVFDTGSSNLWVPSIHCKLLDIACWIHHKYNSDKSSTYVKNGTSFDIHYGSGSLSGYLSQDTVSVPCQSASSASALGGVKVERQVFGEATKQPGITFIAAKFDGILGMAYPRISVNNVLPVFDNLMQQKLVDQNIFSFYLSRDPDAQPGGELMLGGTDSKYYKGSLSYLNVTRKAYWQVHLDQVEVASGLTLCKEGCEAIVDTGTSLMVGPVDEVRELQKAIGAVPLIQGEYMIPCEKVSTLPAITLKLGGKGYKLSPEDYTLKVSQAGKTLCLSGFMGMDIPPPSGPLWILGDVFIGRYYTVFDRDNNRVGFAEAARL
# How it was run: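 Fluorescence at 500 nm excitation and 580 nm emission reports cleavage of a quenched fluorophore–quencher peptide (20 nM) by CHO-expressed Cat D. Reactions ran one hour in 0.05 M citrate pH 3.5, 5 mM CHAPS, 10% DMSO final before a Tris stop raised pH to neutrality.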
# human recombinant BACE2 = human recombinant BACE2 (Homo sapiens (Human), UniProt Q9Y5Z0); experiment: In vitro enzymatic BACE2 FRET assay; assay type: biochemical; details: read-out: IC50 IP (μM) BACE2 enzyme
# Sequence of human recombinant BACE2 (Q9Y5Z0 63-518): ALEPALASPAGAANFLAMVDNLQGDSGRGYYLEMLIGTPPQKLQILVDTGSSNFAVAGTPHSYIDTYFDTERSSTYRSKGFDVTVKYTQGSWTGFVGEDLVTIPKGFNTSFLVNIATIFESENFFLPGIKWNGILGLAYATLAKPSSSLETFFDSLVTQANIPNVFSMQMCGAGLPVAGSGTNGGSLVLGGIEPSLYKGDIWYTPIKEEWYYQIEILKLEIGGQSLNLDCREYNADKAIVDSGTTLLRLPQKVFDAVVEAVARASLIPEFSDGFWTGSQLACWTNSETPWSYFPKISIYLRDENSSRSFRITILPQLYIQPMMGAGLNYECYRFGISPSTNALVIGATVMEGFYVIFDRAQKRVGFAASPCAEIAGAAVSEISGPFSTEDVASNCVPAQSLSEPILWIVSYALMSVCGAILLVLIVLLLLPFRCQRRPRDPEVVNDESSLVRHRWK
# How it was run: as §1
IC50 [1] [µM],IC50 (human recombinant BACE1) [µM],IC50 (Recombinant Cat D) [µM],IC50 (human recombinant BACE2) [µM],Structure (SMILES)
0.00116,0.00069,215,0.0689,"C#C[C@H](C)Oc1cnc(C(=O)Nc2ccc(F)c([C@@]3(C)N=C(N)S[C@@]4(C(=O)NC(C)(C)C)C[C@H]43)c2)cn1 [Example 994, (1S,5S,6S)-3-amino-N-tert-butyl-5-(2-fluoro-5-(((5-(((1S)-1-methyl-2-propyn-1-yl)oxy)-2-pyrazinyl)carbonyl)amino)phenyl)-5-methyl-2-thia-4-azabicyclo[4.1.0]hept-3-ene-1-carboxamide]"
0.026,0.0208,67,0.00465,"COc1ncc(NC(=O)c2ccc(Cl)cn2)cc1[C@@]1(C)N=C(N)S[C@@]2(C(F)F)C[C@@H]12 [Example 990, N-(5-((1S,5S,6S)-3-amino-1-(difluoromethyl)-5-methyl-2-thia-4-azabicyclo[4.1.0]hept-3-en-5-yl)-6-methoxy-3-pyridinyl)-5-chloro-2-pyridinecarboxamide]"
0.0671,0.00575,641,0.0485,"Cc1nc(OCC(F)(F)F)cnc1C(=O)Nc1ccc(F)c([C@@]2(C)N=C(N)S[C@@]3(C(F)F)C[C@@H]23)c1 [Example 623, N-(3-((1S,5S,6S)-3-amino-1-(difluoromethyl)-5-methyl-2-thia-4-azabicyclo[4.1.0]hept-3-en-5-yl)-4-fluorophenyl)-3-methyl-5-(2,2,2-trifluoroethoxy)-2-pyrazinecarboxamide]"
0.000969,0.0024,730,0.17,"C#CCOc1cnc2c(Nc3cnc(F)c([C@@]4(C)N=C(N)S[C@@]5(CO)C[C@H]54)c3)ncnc2c1 [Example 670, ((1S,5S,6S)-3-amino-5-(2-fluoro-5-((7-(2-propyn-1-yloxy)pyrido[3,2-d]pyrimidin-4-yl)amino)-3-pyridinyl)-5-methyl-2-thia-4-azabicyclo[4.1.0]hept-3-en-1-yl)methanol]"
0.0209,0.0118,684,< 0.00203,"NC1=N[C@](CF)(c2cc(NC(=O)c3ccc(Cl)cn3)ccc2F)[C@@H]2C[C@]2(Cn2ccnn2)S1 [Example 722, N-(3-((1S,5S,6S)-3-amino-5-(fluoromethyl)-1-(1H-1,2,3-triazol-1-ylmethyl)-2-thia-4-azabicyclo[4.1.0]hept-3-en-5-yl)-4-fluorophenyl)-5-chloro-2-pyridinecarboxamide]"
0.0351,0.00642,434,0.114,"Cc1cc(OCc2ncco2)cnc1C(=O)Nc1ccc(F)c([C@@]2(C)N=C(N)S[C@@]3(C(F)F)C[C@@H]23)c1 [Example 642, N-(3-((1S,5S,6S)-3-amino-1-(difluoromethyl)-5-methyl-2-thia-4-azabicyclo[4.1.0]hept-3-en-5-yl)-4-fluorophenyl)-3-methyl-5-(1,3-oxazol-2-ylmethoxy)-2-pyridinecarboxamide]"
0.0435,0.0298,> 400,0.00394,"COc1ncc(NC(=O)c2ccc(Cl)cn2)cc1[C@@]1(C)N=C(N)S[C@@]2(CF)C[C@H]21 [Example 624, N-(5-((1S,5S,6S)-3-amino-1-(fluoromethyl)-5-methyl-2-thia-4-azabicyclo[4.1.0]hept-3-en-5-yl)-6-methoxy-3-pyridinyl)-5-chloro-2-pyridinecarboxamide]"
0.111,0.00454,673,0.00268,"COC(=O)[C@]12C[C@H]1[C@@](C)(c1cc(NC(=O)c3ccc(Cl)cn3)cc(F)c1F)N=C(N)S2 [Example 898, (1S,5S,6S)-methyl 3-amino-5-(5-(5-chloropicolinamido)-2,3-difluorophenyl)-5-methyl-2-thia-4-azabicyclo[4.1.0]hept-3-ene-1-carboxylate]"
0.00284,0.000426,212,0.0555,"C[C@]1(c2cc(NC(=O)c3cnc(OCC(F)(F)F)cn3)ccc2F)N=C(N)S[C@@]2(C(=O)NCCF)C[C@H]21 [Example 1040, (1S,5S,6S)-3-amino-5-(2-fluoro-5-(5-(2,2,2-trifluoroethoxy)pyrazine-2-carboxamido)phenyl)-N-(2-fluoroethyl)-5-methyl-2-thia-4-azabicyclo[4.1.0]hept-3-ene-1-carboxamide]"
0.0352,0.00439,655,0.175,"C#C[C@H](C)Oc1cnc(C(=O)Nc2ccc(F)c([C@@]3(C)N=C(N)S[C@@]4(C(F)F)C[C@@H]34)c2)c(C)n1 [Example 619, N-(3-((1S,5S,6S)-3-amino-1-(difluoromethyl)-5-methyl-2-thia-4-azabicyclo[4.1.0]hept-3-en-5-yl)-4-fluorophenyl)-3-methyl-5-(((1S)-1-methyl-2-propyn-1-yl)oxy)-2-pyrazinecarboxamide]"
0.011,0.00171,299,0.0549,"C[C@]1(c2cc(Nc3nccc4nc(OCc5cocn5)cnc34)cc(F)c2F)N=C(N)S[C@@]2(C(F)F)C[C@@H]12 [Example 867, N-(3-((1S,5S,6S)-3-amino-1-(difluoromethyl)-5-methyl-2-thia-4-azabicyclo[4.1.0]hept-3-en-5-yl)-4,5-difluorophenyl)-2-(1,3-oxazol-4-ylmethoxy)pyrido[3,4-b]pyrazin-5-amine]"
0.0137,0.0041,> 400,0.0061,"COC[C@]12C[C@H]1[C@@](C)(c1cc(NC(=O)c3ccc(Cl)cn3)ccc1F)N=C(N)S2 [Example 833, N-(3-((1S,5S,6S)-3-amino-1-(methoxymethyl)-5-methyl-2-thia-4-azabicyclo[4.1.0]hept-3-en-5-yl)-4-fluorophenyl)-5-chloro-2-pyridinecarboxamide]"
0.0102,0.00304,80.9,0.144,"COC[C@]12C[C@H]1[C@@](C)(c1cc(Nc3ncnc4cc(OCc5nc(C)oc5C)cnc34)cc(F)c1F)N=C(N)S2 [Example 948, N-(3-((1S,5S,6S)-3-amino-1-(methoxymethyl)-5-methyl-2-thia-4-azabicyclo[4.1.0]hept-3-en-5-yl)-4,5-difluorophenyl)-7-((2,5-dimethyl-1,3-oxazol-4-yl)methoxy)pyrido[3,2-d]pyrimidin-4-amine]"
0.00143,0.00102,602,< 0.00203,"COCCNC(=O)/C=C/[C@]12C[C@H]1[C@@](CF)(c1cc(NC(=O)c3ccc(Cl)cn3)ccc1F)N=C(N)S2 [Example 767, N-(3-((1R,5S,6S)-3-amino-5-(fluoromethyl)-1-((E)-3-((2-methoxyethyl)amino)-3-oxoprop-1-en-1-yl)-2-thia-4-azabicyclo[4.1.0]hept-3-en-5-yl)-4-fluorophenyl)-5-chloropicolinamide]"
0.034,0.00339,600,0.737,"COC[C@]12C[C@H]1[C@@](C)(c1cc(NC(=O)c3ccc(OCC(F)(F)C(F)F)cn3)cc(F)c1F)N=C(N)S2 [Example 732, N-(3-((1S,5S,6S)-3-amino-1-(methoxymethyl)-5-methyl-2-thia-4-azabicyclo[4.1.0]hept-3-en-5-yl)-4,5-difluorophenyl)-5-(2,2,3,3-tetrafluoropropoxy)-2-pyridinecarboxamide]"
0.0211,0.00452,147,< 0.00203,"CC(C)(C)NC(=O)[C@]12C[C@H]1[C@@](C)(c1cc(NC(=O)c3ccc(Cl)cn3)ccc1F)N=C(N)S2 [Example 797, (1S,5S,6S)-3-amino-N-tert-butyl-5-(5-(((5-chloro-2-pyridinyl)carbonyl)amino)-2-fluorophenyl)-5-methyl-2-thia-4-azabicyclo[4.1.0]hept-3-ene-1-carboxamide]"
0.0134,0.00558,557,0.0026,"C/C(=C\[C@]12C[C@H]1[C@@](CF)(c1cc(NC(=O)c3ccc(Cl)cn3)ccc1F)N=C(N)S2)C(=O)N1CCOCC1 [Example 778, N-(3-((1R,5S,6S)-3-amino-5-(fluoromethyl)-1-((E)-2-methyl-3-morpholino-3-oxoprop-1-en-1-yl)-2-thia-4-azabicyclo[4.1.0]hept-3-en-5-yl)-4-fluorophenyl)-5-chloropicolinamide]"
0.00216,0.00102,> 400,0.0696,"C#CCOc1cnc2c(Nc3cnc(F)c([C@@]4(C)N=C(N)S[C@@]5(CF)C[C@H]54)c3)ncnc2c1 [Example 944, N-(5-((1S,5S,6S)-3-amino-1-(fluoromethyl)-5-methyl-2-thia-4-azabicyclo[4.1.0]hept-3-en-5-yl)-6-fluoro-3-pyridinyl)-7-(2-propyn-1-yloxy)pyrido[3,2-d]pyrimidin-4-amine]"
